In ChEMBL document CHEMBL4304762, “De Novo Design of Boron-Based Peptidomimetics as Potent Inhibitors of Human ClpP in the Presence of Human ClpX” (J Med Chem, 2019):

How the values were obtained:
[1] = Inhibition of human ClpP expressed in Escherichia coli SG1146 cells/His6-tagged TEV-fused human ClpX expressed in Escherichia coli B21 Gold DE3 cells complex formation using FITC-casein as substrate incubated for 60 mins and measured at 20 secs time interval for 90 mins by fluorescence assay
[2] = target: ATP-dependent Clp protease proteolytic subunit, mitochondrial (Homo sapiens, UniProt Q16740); assay: Inhibition of human ClpP expressed in Escherichia coli SG1146 cells using N-acetyl-Trp-Leu-Ala-AMC as substrate incubated for 1 hr and measured at 20 secs time interval for 90 mins by fluorescence assay
Chain of ATP-dependent Clp protease proteolytic subunit, mitochondrial (Q16740 whole entry): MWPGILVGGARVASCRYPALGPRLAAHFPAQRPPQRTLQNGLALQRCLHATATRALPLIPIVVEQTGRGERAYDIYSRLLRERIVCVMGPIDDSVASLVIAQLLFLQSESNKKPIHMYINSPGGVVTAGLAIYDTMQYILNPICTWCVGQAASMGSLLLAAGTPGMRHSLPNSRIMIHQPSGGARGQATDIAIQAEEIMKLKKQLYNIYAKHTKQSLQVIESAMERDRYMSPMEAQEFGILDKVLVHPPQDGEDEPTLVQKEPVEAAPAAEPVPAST

Row | Compound | IC50 [1] | IC50 [2] | IC50 ([2]; read-out: IC50)
1 | CC(C)C[C@H](NC(=O)[C@H](CC(C)C)NC(=O)c1ccccc1-c1ccccc1)B(O)O | 900 nM | – | –
2 | CC(C)CC(NC(=O)C(CC(C)C)NC(=O)C1(c2ccccc2)CC1)B(O)O (stereo unspecified) | – | Not Active | –

Continued, values first:

Row | IC50 [1] | IC50 [2] | IC50 ([2]; read-out: IC50) | Compound
3 | 800 nM | – | – | COc1ccc(C(=O)N[C@@H](CC(C)C)C(=O)N[C@@H](CC(C)C)B(O)O)c(Cl)c1
4 | – | Not Active | 118000 nM | COc1ccc(C(=O)NC(CC(C)C)C(=O)NC(Cc2ccccc2)B(O)O)c(Cl)c1 (stereo unspecified)
5 | 1000 nM | – | – | CC(C)C[C@H](NC(=O)[C@H](CC(C)C)NC(=O)c1ccc(F)c([N+](=O)[O-])c1)B(O)O
